Test results taken from article PMC10838953.

Assays:
AKT (S129) = conditions: 786-O cells; 48 h
[1] = tested on: tumor slices of clear cell renal carcinoma (786-O-luc xenograft); conditions: 10 μM CX-4945, 5 μM AB668
AAK1 = AAK1 (Homo sapiens, UniProt Q2M2I8); assay: biochemical; conditions: read-out: %Ctrl @ 2000nM
ACVR2B = ACVR2B (Homo sapiens, UniProt Q13705); assay: biochemical; conditions: read-out: %Ctrl @ 2000nM
ACVRL1 = ACVRL1 (Homo sapiens, UniProt P37023); assay: biochemical; conditions: read-out: %Ctrl @ 2000nM
AXL = AXL (Homo sapiens, UniProt P30530); assay: biochemical; conditions: read-out: %Ctrl @ 2000nM
BMX = BMX (Homo sapiens, UniProt P51813); assay: biochemical; conditions: read-out: %Ctrl @ 2000nM
CDKL1 = CDKL1 (Homo sapiens, UniProt Q00532); assay: biochemical; conditions: read-out: %Ctrl @ 2000nM
CDKL2 = CDKL2 (Homo sapiens, UniProt Q92772); assay: biochemical; conditions: read-out: %Ctrl @ 2000nM
CLK3 = CLK3 (Homo sapiens, UniProt P49761); assay: biochemical; conditions: read-out: %Ctrl @ 2000nM
CSK = CSK (Homo sapiens, UniProt P41240); assay: biochemical; conditions: read-out: %Ctrl @ 2000nM
CSNK1E = CSNK1E (Homo sapiens, UniProt P49674); assay: biochemical; conditions: read-out: %Ctrl @ 2000nM
EPHA6 = EPHA6 (Homo sapiens, UniProt Q9UF33); assay: biochemical; conditions: read-out: %Ctrl @ 2000nM
FLT3 = FLT3 (Homo sapiens, UniProt P36888); assay: biochemical; conditions: read-out: %Ctrl @ 2000nM
FLT4 = FLT4 (Homo sapiens, UniProt P35916); assay: biochemical; conditions: read-out: %Ctrl @ 2000nM
FRK = FRK (Homo sapiens, UniProt P42685); assay: biochemical; conditions: read-out: %Ctrl @ 2000nM
HUNK = HUNK (Homo sapiens, UniProt P57058); assay: biochemical; conditions: read-out: %Ctrl @ 2000nM
IKK-epsilon = IKK-epsilon (Homo sapiens, UniProt Q14164); assay: biochemical; conditions: read-out: %Ctrl @ 2000nM
[2] = target: JAK3(JH1domain-catalytic) (Homo sapiens, UniProt P52333); assay: biochemical; conditions: read-out: %Ctrl @ 2000nM
KIT-autoinhibited = KIT-autoinhibited (Homo sapiens, UniProt P10721); assay: biochemical; conditions: read-out: %Ctrl @ 2000nM
MARK1 = MARK1 (Homo sapiens, UniProt Q9P0L2); assay: biochemical; conditions: read-out: %Ctrl @ 2000nM
MAST1 = MAST1 (Homo sapiens, UniProt Q9Y2H9); assay: biochemical; conditions: read-out: %Ctrl @ 2000nM
MERTK = MERTK (Homo sapiens, UniProt Q12866); assay: biochemical; conditions: read-out: %Ctrl @ 2000nM
MYO3A = MYO3A (Homo sapiens, UniProt Q8NEV4); assay: biochemical; conditions: read-out: %Ctrl @ 2000nM
MYO3B = MYO3B (Homo sapiens, UniProt Q8WXR4); assay: biochemical; conditions: read-out: %Ctrl @ 2000nM
NEK11 = NEK11 (Homo sapiens, UniProt Q8NG66); assay: biochemical; conditions: read-out: %Ctrl @ 2000nM
PAK4 = PAK4 (Homo sapiens, UniProt O96013); assay: biochemical; conditions: read-out: %Ctrl @ 2000nM
PFCDPK1(P.falciparum) = PFCDPK1(P.falciparum) (Plasmodium falciparum, UniProt P62344); assay: biochemical; conditions: read-out: %Ctrl @ 2000nM
PIK3CA(M1043I) = PIK3CA(M1043I) (Homo sapiens, UniProt P42336, M1043I); assay: biochemical; conditions: read-out: %Ctrl @ 2000nM
PIK3CB = PIK3CB (Homo sapiens, UniProt P42338); assay: biochemical; conditions: read-out: %Ctrl @ 2000nM
PIP5K1A = PIP5K1A (Homo sapiens, UniProt Q99755); assay: biochemical; conditions: read-out: %Ctrl @ 2000nM
PRKCI = PRKCI (Homo sapiens, UniProt P41743); assay: biochemical; conditions: read-out: %Ctrl @ 2000nM
PRKG1 = PRKG1 (Homo sapiens, UniProt Q13976); assay: biochemical; conditions: read-out: %Ctrl @ 2000nM
ROCK2 = ROCK2 (Homo sapiens, UniProt O75116); assay: biochemical; conditions: read-out: %Ctrl @ 2000nM
[3] = target: RPS6KA5(Kin.Dom.2-C-terminal) (Homo sapiens, UniProt O75582); assay: biochemical
SgK110 = SgK110 (Homo sapiens, UniProt P0C264); assay: biochemical; conditions: read-out: %Ctrl @ 2000nM
SRPK2 = SRPK2 (Homo sapiens, UniProt P78362); assay: biochemical; conditions: read-out: %Ctrl @ 2000nM
STK39 = STK39 (Homo sapiens, UniProt Q9UEW8); assay: biochemical; conditions: read-out: %Ctrl @ 2000nM
TAK1 = TAK1 (Homo sapiens, UniProt O43318); assay: biochemical; conditions: read-out: %Ctrl @ 2000nM
TESK1 = TESK1 (Homo sapiens, UniProt Q15569); assay: biochemical; conditions: read-out: %Ctrl @ 2000nM
VEGFR2 = VEGFR2 (Homo sapiens, UniProt P35968); assay: biochemical; conditions: read-out: %Ctrl @ 2000nM
WNK3 = WNK3 (Homo sapiens, UniProt Q9BYP7); assay: biochemical; conditions: read-out: %Ctrl @ 2000nM
YANK2 = YANK2 (Homo sapiens, UniProt Q9NY57); assay: biochemical; conditions: read-out: %Ctrl @ 2000nM

Sequence of RPS6KA5(Kin.Dom.2-C-terminal) (O75582 388-802 limits assumed): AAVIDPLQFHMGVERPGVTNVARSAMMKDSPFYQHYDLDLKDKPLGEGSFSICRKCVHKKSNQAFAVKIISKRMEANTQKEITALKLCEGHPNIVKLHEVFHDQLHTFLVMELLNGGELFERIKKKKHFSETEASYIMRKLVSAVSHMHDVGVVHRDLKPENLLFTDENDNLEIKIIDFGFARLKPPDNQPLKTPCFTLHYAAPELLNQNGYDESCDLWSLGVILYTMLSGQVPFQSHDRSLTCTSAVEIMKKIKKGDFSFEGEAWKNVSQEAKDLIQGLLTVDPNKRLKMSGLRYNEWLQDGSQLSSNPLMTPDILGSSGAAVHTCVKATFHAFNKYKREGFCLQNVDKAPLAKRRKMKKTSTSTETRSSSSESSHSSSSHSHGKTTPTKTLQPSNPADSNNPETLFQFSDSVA
Sequence of AAK1 (Q2M2I8 whole entry): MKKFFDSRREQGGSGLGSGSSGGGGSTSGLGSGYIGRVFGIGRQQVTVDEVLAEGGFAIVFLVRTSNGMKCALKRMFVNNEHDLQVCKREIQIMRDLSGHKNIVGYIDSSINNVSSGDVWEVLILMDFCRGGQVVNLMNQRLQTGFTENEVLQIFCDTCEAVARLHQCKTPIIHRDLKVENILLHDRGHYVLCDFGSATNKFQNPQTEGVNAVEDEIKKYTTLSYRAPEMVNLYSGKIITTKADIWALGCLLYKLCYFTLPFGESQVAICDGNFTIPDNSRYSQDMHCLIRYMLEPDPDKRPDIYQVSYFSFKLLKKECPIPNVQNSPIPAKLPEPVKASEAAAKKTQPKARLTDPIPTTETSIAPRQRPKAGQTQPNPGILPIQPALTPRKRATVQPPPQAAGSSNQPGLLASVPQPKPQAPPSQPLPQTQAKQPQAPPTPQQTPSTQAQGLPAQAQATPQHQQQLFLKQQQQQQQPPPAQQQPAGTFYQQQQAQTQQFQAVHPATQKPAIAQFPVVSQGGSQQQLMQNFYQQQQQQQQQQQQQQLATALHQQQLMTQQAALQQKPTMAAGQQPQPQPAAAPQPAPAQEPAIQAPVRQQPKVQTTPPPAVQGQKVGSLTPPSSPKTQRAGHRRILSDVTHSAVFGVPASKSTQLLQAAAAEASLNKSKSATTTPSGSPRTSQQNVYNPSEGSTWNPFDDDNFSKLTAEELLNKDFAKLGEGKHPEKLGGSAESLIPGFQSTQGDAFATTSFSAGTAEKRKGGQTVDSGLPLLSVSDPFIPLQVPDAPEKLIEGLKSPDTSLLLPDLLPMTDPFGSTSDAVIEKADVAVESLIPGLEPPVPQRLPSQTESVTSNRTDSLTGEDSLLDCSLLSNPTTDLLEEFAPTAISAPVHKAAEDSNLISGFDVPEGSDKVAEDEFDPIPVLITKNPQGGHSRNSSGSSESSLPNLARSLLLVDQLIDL
Sequence of HUNK (P57058 whole entry): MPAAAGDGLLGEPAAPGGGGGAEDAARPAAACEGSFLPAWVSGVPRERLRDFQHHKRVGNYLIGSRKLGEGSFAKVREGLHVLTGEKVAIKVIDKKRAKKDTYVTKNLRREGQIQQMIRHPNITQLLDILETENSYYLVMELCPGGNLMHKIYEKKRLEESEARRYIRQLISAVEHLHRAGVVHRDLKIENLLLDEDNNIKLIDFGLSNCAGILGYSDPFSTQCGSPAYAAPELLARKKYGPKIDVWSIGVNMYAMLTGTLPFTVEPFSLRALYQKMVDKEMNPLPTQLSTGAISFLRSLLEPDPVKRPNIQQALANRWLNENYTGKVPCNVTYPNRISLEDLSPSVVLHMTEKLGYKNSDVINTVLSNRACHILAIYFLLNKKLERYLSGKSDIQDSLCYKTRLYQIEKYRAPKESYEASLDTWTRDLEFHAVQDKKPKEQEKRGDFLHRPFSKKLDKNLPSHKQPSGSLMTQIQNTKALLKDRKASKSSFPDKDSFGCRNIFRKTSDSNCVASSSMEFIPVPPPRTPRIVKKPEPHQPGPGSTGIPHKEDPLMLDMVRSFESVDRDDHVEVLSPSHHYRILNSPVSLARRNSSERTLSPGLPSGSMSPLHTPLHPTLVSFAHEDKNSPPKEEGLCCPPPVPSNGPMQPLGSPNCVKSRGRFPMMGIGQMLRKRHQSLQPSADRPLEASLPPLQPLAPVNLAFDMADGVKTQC
Sequence of CDKL1 (Q00532 whole entry): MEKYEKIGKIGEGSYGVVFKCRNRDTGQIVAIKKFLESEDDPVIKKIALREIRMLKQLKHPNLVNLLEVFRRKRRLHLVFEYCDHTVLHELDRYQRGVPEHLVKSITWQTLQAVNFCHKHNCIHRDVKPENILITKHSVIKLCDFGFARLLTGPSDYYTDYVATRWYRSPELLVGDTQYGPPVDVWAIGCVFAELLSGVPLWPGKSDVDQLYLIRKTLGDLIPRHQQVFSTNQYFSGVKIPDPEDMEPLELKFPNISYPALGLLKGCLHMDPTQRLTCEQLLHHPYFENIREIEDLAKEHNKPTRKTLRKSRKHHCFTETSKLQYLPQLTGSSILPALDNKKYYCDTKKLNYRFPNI
Sequence of NEK11 (Q8NG66 whole entry): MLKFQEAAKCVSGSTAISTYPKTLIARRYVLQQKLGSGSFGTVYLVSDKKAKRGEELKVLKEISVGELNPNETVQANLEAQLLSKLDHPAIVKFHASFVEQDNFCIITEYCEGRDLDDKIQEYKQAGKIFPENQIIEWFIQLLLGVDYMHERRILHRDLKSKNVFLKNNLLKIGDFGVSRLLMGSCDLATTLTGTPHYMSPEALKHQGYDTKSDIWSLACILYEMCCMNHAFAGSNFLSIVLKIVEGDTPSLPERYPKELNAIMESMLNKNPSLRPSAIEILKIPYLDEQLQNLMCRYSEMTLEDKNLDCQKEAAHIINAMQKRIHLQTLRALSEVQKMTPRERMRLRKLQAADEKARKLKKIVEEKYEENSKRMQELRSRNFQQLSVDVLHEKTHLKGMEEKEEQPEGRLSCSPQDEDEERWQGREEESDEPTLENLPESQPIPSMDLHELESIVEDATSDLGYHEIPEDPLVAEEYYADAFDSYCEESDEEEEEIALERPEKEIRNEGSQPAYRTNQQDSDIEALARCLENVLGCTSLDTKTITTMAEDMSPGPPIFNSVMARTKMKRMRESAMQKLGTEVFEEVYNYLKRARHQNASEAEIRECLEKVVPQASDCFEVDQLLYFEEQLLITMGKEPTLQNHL
Sequence of IKK-epsilon (Q14164 whole entry): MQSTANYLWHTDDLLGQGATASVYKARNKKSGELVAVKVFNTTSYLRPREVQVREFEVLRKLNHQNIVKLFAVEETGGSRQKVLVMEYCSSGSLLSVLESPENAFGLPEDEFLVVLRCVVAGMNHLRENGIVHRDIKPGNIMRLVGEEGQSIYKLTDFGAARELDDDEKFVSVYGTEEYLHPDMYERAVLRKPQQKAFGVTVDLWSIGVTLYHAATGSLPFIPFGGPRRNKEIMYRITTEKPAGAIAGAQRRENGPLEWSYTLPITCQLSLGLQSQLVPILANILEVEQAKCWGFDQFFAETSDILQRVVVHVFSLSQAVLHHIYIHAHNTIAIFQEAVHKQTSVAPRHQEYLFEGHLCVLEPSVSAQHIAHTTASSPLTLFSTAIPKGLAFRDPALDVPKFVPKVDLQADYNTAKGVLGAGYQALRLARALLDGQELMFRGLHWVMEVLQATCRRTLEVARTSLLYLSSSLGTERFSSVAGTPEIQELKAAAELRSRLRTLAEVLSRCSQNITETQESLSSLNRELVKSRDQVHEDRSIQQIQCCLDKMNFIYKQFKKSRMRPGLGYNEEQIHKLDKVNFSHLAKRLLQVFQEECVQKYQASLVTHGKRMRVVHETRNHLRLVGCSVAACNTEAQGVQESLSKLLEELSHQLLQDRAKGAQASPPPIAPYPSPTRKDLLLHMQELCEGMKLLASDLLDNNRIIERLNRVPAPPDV
Sequence of CSK (P41240 whole entry): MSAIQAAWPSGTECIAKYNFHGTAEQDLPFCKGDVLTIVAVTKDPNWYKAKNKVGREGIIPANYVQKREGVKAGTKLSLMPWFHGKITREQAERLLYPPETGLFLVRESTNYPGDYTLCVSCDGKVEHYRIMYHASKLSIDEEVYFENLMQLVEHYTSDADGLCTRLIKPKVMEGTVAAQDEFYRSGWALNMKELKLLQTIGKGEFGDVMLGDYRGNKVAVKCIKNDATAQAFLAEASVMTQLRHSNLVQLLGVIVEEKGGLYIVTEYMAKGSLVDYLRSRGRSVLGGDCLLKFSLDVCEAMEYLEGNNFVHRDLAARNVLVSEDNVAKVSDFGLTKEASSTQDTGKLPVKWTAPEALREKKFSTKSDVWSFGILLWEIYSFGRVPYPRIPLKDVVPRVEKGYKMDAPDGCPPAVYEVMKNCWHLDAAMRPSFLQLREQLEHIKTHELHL
Sequence of ACVRL1 (P37023 22-503): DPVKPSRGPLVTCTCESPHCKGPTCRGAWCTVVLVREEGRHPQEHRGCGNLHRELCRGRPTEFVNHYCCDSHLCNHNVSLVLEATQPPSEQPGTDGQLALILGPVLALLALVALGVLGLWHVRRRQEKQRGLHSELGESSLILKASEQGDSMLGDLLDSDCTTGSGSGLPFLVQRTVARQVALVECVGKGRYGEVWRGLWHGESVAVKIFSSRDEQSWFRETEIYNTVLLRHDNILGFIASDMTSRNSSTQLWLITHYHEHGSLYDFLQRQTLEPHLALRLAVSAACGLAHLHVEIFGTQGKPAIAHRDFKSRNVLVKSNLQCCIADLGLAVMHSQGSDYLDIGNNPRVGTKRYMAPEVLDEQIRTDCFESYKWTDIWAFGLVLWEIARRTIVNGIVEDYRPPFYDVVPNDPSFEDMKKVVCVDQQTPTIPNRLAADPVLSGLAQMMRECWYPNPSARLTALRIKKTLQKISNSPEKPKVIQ

CC(C)COC(=O)c1[nH]c2ccc(F)cc2c1-c1cn(CC2CCN(CCNS(=O)(=O)c3ccc(CC(C)C)cc3)CC2)nn1 [AB668, isobutyl 5-fluoro-3-(1-((1-(2-((4-isobutylphenyl)sulfonamido)ethyl)piperidin-4-yl)methyl)-1H-1,2,3-triazol-4-yl)-1H-indole-2-carboxylate]
phosphorylation of S129AKT (AKT (S129)): decreased, in a dose-dependent manner | cell viability of tumor slices [1]: significantly reduced cell viability | remaining activity at 2 µM (AAK1): 80% | remaining activity at 2 µM (ACVR2B): 92% | remaining activity at 2 µM (ACVRL1): 90% | remaining activity at 2 µM (AXL): 100% | remaining activity at 2 µM (BMX): 85% | remaining activity at 2 µM (CDKL1): 86% | remaining activity at 2 µM (CDKL2): 84% | remaining activity at 2 µM (CLK3): 79% | remaining activity at 2 µM (CSK): 95% | remaining activity at 2 µM (CSNK1E): 66% | remaining activity at 2 µM (EPHA6): 83% | remaining activity at 2 µM (FLT3): 87% | remaining activity at 2 µM (FLT4): 98% | remaining activity at 2 µM (FRK): 70% | remaining activity at 2 µM (HUNK): 88% | remaining activity at 2 µM (IKK-epsilon): 76% | remaining activity at 2 µM [2]: 73% | remaining activity at 2 µM (KIT-autoinhibited): 96% | remaining activity at 2 µM (MARK1): 79% | remaining activity at 2 µM (MAST1): 100% | remaining activity at 2 µM (MERTK): 96% | remaining activity at 2 µM (MYO3A): 96% | remaining activity at 2 µM (MYO3B): 100% | remaining activity at 2 µM (NEK11): 100% | remaining activity at 2 µM (PAK4): 95% | remaining activity at 2 µM (PFCDPK1(P.falciparum)): 81% | remaining activity at 2 µM (PIK3CA(M1043I)): 100% | remaining activity at 2 µM (PIK3CB): 90% | remaining activity at 2 µM (PIP5K1A): 85% | remaining activity at 2 µM (PRKCI): 85% | remaining activity at 2 µM (PRKG1): 85% | remaining activity at 2 µM (ROCK2): 83% | remaining activity at 2 µM ([3]; read-out: %Ctrl @ 2000nM): 43% | inhibition at 2 µM ([3]; read-out: percentage inhibition): > 50% | remaining activity at 2 µM (SgK110): 71% | remaining activity at 2 µM (SRPK2): 98% | remaining activity at 2 µM (STK39): 90% | remaining activity at 2 µM (TAK1): 84% | remaining activity at 2 µM (TESK1): 95% | remaining activity at 2 µM (VEGFR2): 98% | remaining activity at 2 µM (WNK3): 98% | remaining activity at 2 µM (YANK2): 76%
